In publication PMC9817970 (Cancers, 2022):

Columns and labels:
[1] = system: GIST-T1 cells; assay: Cell viability assay (CellTiter-Glo); assay type: cell-based; settings: Homo sapiens, GISTT1; 72 h; concentration causing half-maximal growth inhibition
Procedure: (§1) GIST-T1 (Cosmobio, Tokyo, Japan, # PMC-GIST01C-COS) cells were cultured in DMEM (Welgene, # LM001-05) and HMC1.2 (Merck, Darmstadt, Germany, # SCC062) cells were cultured in IMDM (Welgene, # LM004-01). Parental Ba/F3 (DSMZ, Braunschweig, Germany, # ACC300) cells were cultured in RPMI (Welgene, # LM011-51) with 10 ng IL-3/mL (Enzo, # ALX-201-821). The culture media was supplemented with 10% fetal bovine serum and 1% penicillin/streptomycin solution. The cells were maintained in a humidified atmosphere containing 5% CO2 at 37 °C.
(§2) Cells (GIST-T1: 5.0 × 10^3; HMC1.2: 1 × 10^4) were seeded in 96-well plates. Each compound was treated in each well at 10 dose points of 3-fold serial dilution. After treatment with each compound for 72 h, CellTiter-Glo solution (Promega, # G7572) was added to each well. Anti-proliferation activity was measured the luminescence using a 96-well plate reader (EnVision 2013).

[2] = system: HMC1.2 cells; assay: Cell viability assay (CellTiter-Glo); assay type: cell-based, human; settings: 72 h; for GI50: Homo sapiens; for GI50 HMC1.2: inactive = less than 50% inhibition at a concentration of 50 μM
Procedure: as §1, §2

[3] = target: c-KIT (Homo sapiens, UniProt P10721); assay: Radiometric biochemical kinase assay on c-KIT; set-up: purchased Reaction Biology Corp. (contract assay service); settings: for IC50: read-out: IC50 against c-KIT; for IC50 against c-KIT: radiometric biochemical kinase assay, 10 μM ATP, inactive = less than 50% inhibition at a concentration of 10 μM; for fold decreased c-KIT inhibitory activity relative to 6r: versus 6r; for fold enhanced c-KIT inhibitory activity compared with 6h: versus 6h
Procedure: Biochemical kinase assays on c-KIT protein kinase were performed at Reaction Biology Corp. (San Diego, CA, USA). […] The kinase assay followed the manufacturer’s instruction. IC50 values were calculated by GraphPad prism 8.0 software (GraphPad Software, San Diego, CA, USA).
Enzymatic inhibitory activities of all synthesized thiazolo[5,4-b]pyridine derivatives against c-KIT were measured using radiometric biochemical kinase assays (Table 1). We first explored the R1 group of the thiazolo[5,4-b]pyridine scaffold.

[4] = system: c-KIT D816V Ba/F3 cells; assay: Anti-proliferative activity on Ba/F3 cells; assay type: cell-based; settings: Mus musculus, BaF3
[5] = system: parental Ba/F3 cells; assay: Anti-proliferative activity on Ba/F3 cells; assay type: cell-based; settings: Mus musculus, BaF3
Procedure: as §1, §2

c-KIT, sequence (P10721 26-976): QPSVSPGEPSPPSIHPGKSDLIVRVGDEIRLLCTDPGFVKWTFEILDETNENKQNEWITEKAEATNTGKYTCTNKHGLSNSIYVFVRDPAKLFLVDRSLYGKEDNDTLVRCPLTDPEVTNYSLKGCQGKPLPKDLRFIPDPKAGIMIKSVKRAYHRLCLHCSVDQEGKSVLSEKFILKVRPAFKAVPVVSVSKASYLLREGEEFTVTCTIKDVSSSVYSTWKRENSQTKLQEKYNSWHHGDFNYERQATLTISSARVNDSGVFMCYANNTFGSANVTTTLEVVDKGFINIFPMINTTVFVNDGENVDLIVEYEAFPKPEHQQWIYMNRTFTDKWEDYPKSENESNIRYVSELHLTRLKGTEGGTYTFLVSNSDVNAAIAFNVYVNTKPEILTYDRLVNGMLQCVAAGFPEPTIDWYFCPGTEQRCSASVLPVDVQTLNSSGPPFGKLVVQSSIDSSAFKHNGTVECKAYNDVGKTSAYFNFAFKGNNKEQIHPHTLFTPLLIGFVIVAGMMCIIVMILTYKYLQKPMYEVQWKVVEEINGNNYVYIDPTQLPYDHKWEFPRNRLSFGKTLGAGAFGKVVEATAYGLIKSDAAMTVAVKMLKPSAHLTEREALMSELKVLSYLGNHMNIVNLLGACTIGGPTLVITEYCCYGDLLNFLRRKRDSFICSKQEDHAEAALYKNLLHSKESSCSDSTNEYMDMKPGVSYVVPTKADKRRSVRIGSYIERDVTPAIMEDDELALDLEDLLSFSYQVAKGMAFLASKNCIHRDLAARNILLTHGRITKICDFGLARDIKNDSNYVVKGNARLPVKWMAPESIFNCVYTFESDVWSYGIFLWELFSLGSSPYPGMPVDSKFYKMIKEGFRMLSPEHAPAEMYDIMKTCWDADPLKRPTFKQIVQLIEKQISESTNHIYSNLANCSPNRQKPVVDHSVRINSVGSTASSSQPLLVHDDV

Compound | IC50 [3] [µM] | IC50 against c-KIT [3] | fold decreased c-KIT inhibitory activity relative to 6r [3] | GI50 [4] [µM] | fold enhanced c-KIT inhibitory activity compared with 6h [3] | GI50 [1] [µM] | GI50 [2] [µM] | GI50 HMC1.2 [2] | GI50 [5] [µM]
CC(=O)N1CCN(Cc2ccc(C(=O)Nc3ccc(C)c(-c4cnc5sc(N)nc5c4)c3)cc2C(F)(F)F)CC1 [6u] | 4.56 | – | – | – | – | 0.66 ± 0.08 | 11.3 ± 0.34 | – | –
CC(=O)Nc1nc2cc(-c3cc(NC(=O)c4ccc(CN5CCCC(N(C)C)C5)c(C(F)(F)F)c4)ccc3C)cnc2s1 (stereo not drawn) [7g] | 0.18 | – | – | – | – | 0.07 ± 0.01 | 4.88 ± 1.18 | – | –
CC(=O)Nc1nc2cc(-c3cc(NC(=O)c4ccc(N5CCOCC5)c(C(F)(F)F)c4)ccc3C)cnc2s1 [7e] | 0.88 | – | – | – | – | 0.23 ± 0.07 | 14 ± 10.2 | – | –
Cc1ccc(NC(=O)c2ccc(CN3CCN(C)CC3)c(C(F)(F)F)c2)cc1-c1cnc2sc(NC(=O)C3CCCCC3)nc2c1 [7a] | 1.51 | – | 5.3- to 10.8 fold | – | – | 0.08 ± 0.01 | 4.58 ± 0.32 | – | –
CCN(CC)CCNC(=O)c1c(C)[nH]c(/C=C2\C(=O)Nc3ccc(F)cc32)c1C [sunitinib, reference compound] | – | – | – | 0.58 ± 0.29 | – | 0.01 | 2.53 ± 0.35 | – | 2.72 ± 0.3
Cc1ccc(NC(=O)c2ccc(N3CCOCC3)c(C(F)(F)F)c2)cc1-c1cnc2sc(NC(=O)C3CCCCC3)nc2c1 [7d] | – | inactive^b | – | – | – | 8.13 ± 1.81 | – | inactive ^b | –
Cc1ccc(NC(=O)c2ccc(CN3CCN(CCO)CC3)c(C(F)(F)F)c2)cc1-c1cnc2sc(N)nc2c1 [6t] | 1.25 | – | – | – | – | 0.12 ± 0.03 | 6.62 ± 0.75 | – | –
Cc1ccc(NC(=O)c2ccc(CN3CCS(=O)(=O)CC3)c(C(F)(F)F)c2)cc1-c1cnc2sc(N)nc2c1 [6q] | 3.23 | – | – | – | – | 0.42 ± 0.07 | 15.5 ± 3.97 | – | –
Cc1ccc(NC(=O)c2ccc(CN(C)CCN(C)C)c(C(F)(F)F)c2)cc1-c1cnc2sc(N)nc2c1 [6w] | 0.25 | – | – | – | – | 0.02 ± 0.01 | 4.99 ± 0.43 | – | –
Cc1ccc(NC(=O)c2cc(N3CCN(C)CC3)cc(C(F)(F)F)c2)cc1-c1cnc2sc(N)nc2c1 [6o] | 5.03 | – | – | – | – | 0.28 ± 0.08 | 2.36 ± 0.58 | – | –
CC(=O)Nc1nc2cc(-c3cc(NC(=O)c4ccc(CN(C)CCN(C)C)c(C(F)(F)F)c4)ccc3C)cnc2s1 [7h] | 0.1 | – | – | – | – | 0.02 | 4.98 ± 0.32 | – | –
Cc1ccc(NC(=O)c2ccc(CN3CCCC(N(C)C)C3)c(C(F)(F)F)c2)cc1-c1cnc2sc(N)nc2c1 (stereo not drawn) [6v] | 0.39 | – | – | – | – | 0.05 ± 0.01 | 6.81 ± 0.67 | – | –
CC(=O)Nc1nc2cc(-c3cc(NC(=O)c4ccc(CN5CCOCC5)c(C(F)(F)F)c4)ccc3C)cnc2s1 [7f] | 3.63 | – | – | – | – | 0.3 ± 0.06 | 28.4 ± 13.3 | – | –
Cc1ccc(NC(=O)c2ccc(CN3CCN(C)CC3)c(C(F)(F)F)c2)cc1-c1cnc2sc(NC(=O)c3ccccc3)nc2c1 [7b] | 0.74 | – | 5.3- to 10.8 fold | – | – | 0.1 ± 0.01 | 5.22 ± 0.59 | – | –
Cc1ccc(NC(=O)c2cc(N3CCOCC3)cc(C(F)(F)F)c2)cc1-c1cnc2sc(N)nc2c1 [6n] | – | Inactive ^b | – | – | – | 0.55 ± 0.09 | 7 ± 2.68 | – | –

Second part, led by results:

IC50 [3] [µM] | IC50 against c-KIT [3] | fold decreased c-KIT inhibitory activity relative to 6r [3] | GI50 [4] [µM] | fold enhanced c-KIT inhibitory activity compared with 6h [3] | Compound | GI50 [1] [µM] | GI50 [2] [µM] | GI50 HMC1.2 [2] | GI50 [5] [µM]
– | inactive^b | – | – | – | Cc1ccc(NC(=O)c2cscn2)cc1-c1cnc2sc(N)nc2c1 [6a] | > 50 | – | Inactive ^b | –
– | inactive^b | – | – | – | Cc1ccc(NC(=O)c2csc(-c3ccncc3)n2)cc1-c1cnc2sc(N)nc2c1 [6c] | 33.7 ± 3.45 | – | Inactive ^b | –
– | inactive^b | – | – | – | Cc1ccc(NC(=O)Cc2cccc(C(F)(F)F)c2)cc1-c1cnc2sc(N)nc2c1 [6i] | 7.16 ± 0.87 | 9.65 ± 1.06 | – | –
4.31 | – | – | – | 2.3- to 5.6 fold | Cc1ccc(NC(=O)c2ccc(N(C)C)c(C(F)(F)F)c2)cc1-c1cnc2sc(N)nc2c1 [6k] | 0.18 ± 0.03 | 2.27 ± 0.84 | – | –
– | inactive^b | – | – | – | Cc1cc(C(=O)Nc2ccc(C)c(-c3cnc4sc(N)nc4c3)c2)no1 [6b] | 33 ± 7.09 | – | Inactive ^b | –
– | inactive^b | – | – | – | Cc1ccc(NC(=O)c2ccccc2)cc1-c1cnc2sc(N)nc2c1 [6d] | 16.4 ± 2.73 | 25.2 ± 2.21 | – | –
1.76 | – | – | – | 2.3- to 5.6 fold | Cc1ccc(NC(=O)c2ccc(N3CCOCC3)c(C(F)(F)F)c2)cc1-c1cnc2sc(N)nc2c1 [6l] | 0.08 ± 0.01 | 4.34 ± 1.31 | – | –
– | inactive^b | – | – | – | Cc1ccc(NC(=O)Nc2cccc(C(F)(F)F)c2)cc1-c1cnc2sc(N)nc2c1 [6j] | 3.31 ± 0.73 | 6.35 ± 0.32 | – | –
– | inactive^b | – | – | – | Cc1cccc(C(=O)Nc2ccc(C)c(-c3cnc4sc(N)nc4c3)c2)c1 [6e] | 3.45 ± 0.41 | 11.5 ± 0.62 | – | –
– | inactive^b | – | – | – | Cc1cncc(C(=O)Nc2ccc(C)c(-c3cnc4sc(N)nc4c3)c2)c1 [6f] | 20.9 ± 2 | – | inactive ^b | –
2.17 | – | – | – | 2.3- to 5.6 fold | Cc1ccc(NC(=O)c2ccc(N3CCN(C)CC3)c(C(F)(F)F)c2)cc1-c1cnc2sc(N)nc2c1 [6m] | 0.27 ± 0.17 | 3.41 ± 1.49 | – | –
– | inactive^b | – | – | – | Cc1ccc(NC(=O)c2cccc(S(C)(=O)=O)c2)cc1-c1cnc2sc(N)nc2c1 [6g] | 10.8 ± 1.06 | 36.8 ± 10.9 | – | –
9.87 | – | – | – | – | Cc1ccc(NC(=O)c2cccc(C(F)(F)F)c2)cc1-c1cnc2sc(N)nc2c1 [6h] | 0.96 ± 0.1 | 7.26 ± 4.13 | – | –
5.72 | – | – | – | – | Cc1ccc(NC(=O)c2ccc(CN3CCOCC3)c(C(F)(F)F)c2)cc1-c1cnc2sc(N)nc2c1 [6p] | 0.66 ± 0.1 | 8.55 ± 2.4 | – | –
